Data: US20050096349A1, “Methods to prevent or ameliorate medication-, procedure-or stress-induced cognitive and speech dysfunction and methods to optimize cognitive and speech functioning” (priority 2003, published 2005)

Assays:
[1] = tested on: feeling dull and having difficulty concentrating
word finding difficulty = assay: Example 1: case report, atomoxetine added for word finding difficulty on topiramate; format: in vivo, patient; details: for word finding (patient description): person on topiramate
Excerpt: (§1) Patient is a person with compulsive shopping (impulse control disorder, not otherwise specified), type II diabetes, and obesity. They have no other psychiatric disorders including mood or anxiety disorders.

[2] = tested on: feeling "cloudy" and "disoriented"; assay: Example 3: case report, atomoxetine added for feeling cloudy and disoriented on olanzapine, clonazepam, fiorinal; format: in vivo, patient
Experimental: Patient is a person with major depression, panic, generalized anxiety disorder, chronic headaches and fibromyalgia. They are on escitalopram 20 mg po qd, olanzapine 7.5 mg po qhs, clonazepam 0.5 mg po bid, and fiorinal prn. […] Atomoxetine was initiated at 18 mg po qd and increased to 25 mg po qd after 8 days.

[3] = tested on: compulsive shopping (impulse control disorder, not otherwise specified); assay: Example 1: case report, topiramate for compulsive shopping; format: in vivo, patient
Excerpt: as §1

CNCC[C@@H](Oc1ccccc1C)c1ccccc1 [Atomoxetine, atomoxetine]
improvement compared with 25 mg (patient description) ([1]; atomoxetine 40 mg po qd): did not have the same improvement as at 25 mg
side effects ([1]; atomoxetine 40 mg po qd): felt dizzy and “spacy”
concentration and side effects ([1]; atomoxetine alternating 25 mg and 40 mg po qd every other day): improved concentration without significant side effects
tolerability of effective dose of alpraxolam (2-4 mg/day) ([1]; on atomoxetine alternating 25 mg and 40 mg po qd): without difficulties in concentration/cognitive functioning
concentration and ability to work (patient description) ([1]; person on escitalopram 20 mg po qd and alprazolam, atomoxetine 25 mg po qd, within a few days): improved concentration and improved ability to work
tolerability of higher topiramate dose (word finding difficulty; atomoxetine 40 mg po qd, tolerated for 2 months): could tolerate a topiramate dose of 100 mg without difficulty
word finding (patient description) (word finding difficulty; atomoxetine 25 mg po qd, over the next month): mild improvement in word finding
word finding (patient description) (word finding difficulty; atomoxetine 40 mg po qd, over the following month): noticeable improvement in their word finding
duration of stable effect ([2]; atomoxetine 25 mg po qd): 2 months
tolerability of other medications in terms of cognitive functioning ([2]; on atomoxetine 25 mg po qd): able to tolerate their other medications without difficulty in terms of cognitive functioning
concentration, attention, focus (patient description) ([2]; person on escitalopram, olanzapine, clonazepam, fiorinal, atomoxetine 18 mg po qd increased to 25 mg po qd after 8 days): improved concentration, attention, and “focus”

CC1(C)O[C@@H]2[C@@H](CO[C@@]3(COS(N)(=O)=O)OC(C)(C)O[C@@H]23)O1 [topiramate]
weight ([3]; higher dosages of topiramate): decreased weight
urges and control over shopping behaviors ([3]; person, topiramate dose slowly increased): decreased urges and improved control over their shopping behaviors
cognitive side effect ([3]; topiramate increased to 75 mg po qd): word finding difficulty which persisted
